Legend:
Experiment in all cases: relative viability (nuclei count vs DMSO), 5 days (fraction); higher = more cells survive
[1] = compound: CNC(=O)c1cc(Oc2ccc(NC(=O)Nc3ccc(Cl)c(C(F)(F)F)c3)cc2)ccn1 [Sorafenib] + Nc1nc2[nH]cc(CCc3ccc(C(=O)N[C@@H](CCC(=O)O)C(=O)O)cc3)c2c(=O)[nH]1 [Pemetrexed] (partner 0.2 µM)
Outline: (§1)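 The day after seeding in 1536-well plates, lung cancer cell lines were treated by pin tool with a single drug, or with a fixed anchor-drug dose together with five library-drug doses (not always all listed) in √10 steps. After 5 days, a combined fix-and-stain solution (final 0.05% Triton X-100, 1% formaldehyde, 1 ug/ml Hoechst) was added. Nuclei counted on 4× images gave relative viability as treated counts over vehicle counts, reported as the median of duplicate plates.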

[2] = compound: CNC(=O)c1cc(Oc2ccc(NC(=O)Nc3ccc(Cl)c(C(F)(F)F)c3)cc2)ccn1 [Sorafenib] + NC(=O)Nc1cc(-c2cccc(F)c2)sc1C(=O)N[C@H]1CCCNC1 [AZD7762] (partner 0.2 µM)
Outline: as §1

[3] = compound: CNC(=O)c1cc(Oc2ccc(NC(=O)Nc3ccc(Cl)c(C(F)(F)F)c3)cc2)ccn1 [Sorafenib] + CC(=O)Nc1cccc(-n2c(=O)n(C3CC3)c(=O)c3c(Nc4ccc(I)cc4F)n(C)c(=O)c(C)c32)c1 [Trametinib] (partner 0.02 µM)
Outline: as §1

[4] = compound: CNC(=O)c1cc(Oc2ccc(NC(=O)Nc3ccc(Cl)c(C(F)(F)F)c3)cc2)ccn1 [Sorafenib] + Nc1ncn([C@H]2C[C@H](O)[C@@H](CO)O2)c(=O)n1 [Decitabine] (partner 2 µM)
Outline: as §1

[5] = compound: CNC(=O)c1cc(Oc2ccc(NC(=O)Nc3ccc(Cl)c(C(F)(F)F)c3)cc2)ccn1 [Sorafenib] + CS(=O)(=O)N1CCN(Cc2cc3nc(-c4cccc5[nH]ncc45)nc(N4CCOCC4)c3s2)CC1 [Pictilisib] (partner 1 µM)
Outline: as §1

Cell Line: NCI-H650
- relative viability ([1]; first compound 0.08 µM): 0.928
- relative viability ([1]; first compound 0.253 µM): 0.799
- relative viability ([1]; first compound 2.53 µM): 0.904
- relative viability ([1]; first compound 8 µM): 0.795
- relative viability ([2]; first compound 0.08 µM): 1.31
- relative viability ([2]; first compound 0.253 µM): 0.691
- relative viability ([2]; first compound 2.53 µM): 0.96
- relative viability ([2]; first compound 8 µM): 0.936
- relative viability ([3]; first compound 0.08 µM): 0.989
- relative viability ([3]; first compound 0.253 µM): 0.937
- relative viability ([3]; first compound 2.53 µM): 0.866
- relative viability ([3]; first compound 8 µM): 0.578
- relative viability ([4]; first compound 0.08 µM): 0.343
- relative viability ([4]; first compound 0.253 µM): 0.295
- relative viability ([4]; first compound 2.53 µM): 0.34
- relative viability ([4]; first compound 8 µM): 0.278
- relative viability ([5]; first compound 0.08 µM): 0.911
- relative viability ([5]; first compound 0.253 µM): 0.751
- relative viability ([5]; first compound 2.53 µM): 0.696
- relative viability ([5]; first compound 8 µM): 0.746

Cell Line: EKVX
- relative viability ([1]; first compound 0.08 µM): 0.511
- relative viability ([1]; first compound 0.253 µM): 0.365
- relative viability ([1]; first compound 2.53 µM): 0.375
- relative viability ([1]; first compound 8 µM): 0.389
- relative viability ([2]; first compound 0.08 µM): 0.837
- relative viability ([2]; first compound 0.253 µM): 0.638
- relative viability ([2]; first compound 2.53 µM): 0.627
- relative viability ([2]; first compound 8 µM): 0.57
- relative viability ([3]; first compound 0.08 µM): 0.36
- relative viability ([3]; first compound 0.253 µM): 0.349
- relative viability ([3]; first compound 2.53 µM): 0.317
- relative viability ([3]; first compound 8 µM): 0.219
- relative viability ([4]; first compound 0.08 µM): 0.339
- relative viability ([4]; first compound 0.253 µM): 0.362
- relative viability ([4]; first compound 2.53 µM): 0.378
- relative viability ([4]; first compound 8 µM): 0.305
- relative viability ([5]; first compound 0.08 µM): 0.529
- relative viability ([5]; first compound 0.253 µM): 0.463
- relative viability ([5]; first compound 2.53 µM): 0.434
- relative viability ([5]; first compound 8 µM): 0.393

Cell Line: EPLC-272H
- relative viability ([1]; first compound 0.08 µM): 0.412
- relative viability ([1]; first compound 0.253 µM): 0.295
- relative viability ([1]; first compound 2.53 µM): 0.318
- relative viability ([1]; first compound 8 µM): 0.542
- relative viability ([2]; first compound 0.08 µM): 0.247
- relative viability ([2]; first compound 0.253 µM): 0.176
- relative viability ([2]; first compound 8 µM): 0.209
- relative viability ([3]; first compound 0.08 µM): 0.298
- relative viability ([3]; first compound 0.253 µM): 0.274
- relative viability ([3]; first compound 2.53 µM): 0.27
- relative viability ([3]; first compound 8 µM): 0.205
- relative viability ([4]; first compound 0.08 µM): 0.42
- relative viability ([4]; first compound 0.253 µM): 0.395
- relative viability ([4]; first compound 2.53 µM): 0.388
- relative viability ([4]; first compound 8 µM): 0.284
- relative viability ([5]; first compound 0.08 µM): 0.393
- relative viability ([5]; first compound 0.253 µM): 0.286
- relative viability ([5]; first compound 2.53 µM): 0.45
- relative viability ([5]; first compound 8 µM): 0.299

Cell Line: NCI-H2087
- relative viability ([1]; first compound 0.08 µM): 0.694
- relative viability ([1]; first compound 0.253 µM): 0.622
- relative viability ([1]; first compound 2.53 µM): 0.61
- relative viability ([1]; first compound 8 µM): 0.239
- relative viability ([2]; first compound 0.08 µM): 1.39
- relative viability ([2]; first compound 0.253 µM): 1.08
- relative viability ([2]; first compound 2.53 µM): 1.02
- relative viability ([2]; first compound 8 µM): 0.264
- relative viability ([3]; first compound 0.08 µM): 0.19
- relative viability ([3]; first compound 0.253 µM): 0.233
- relative viability ([3]; first compound 2.53 µM): 0.199
- relative viability ([3]; first compound 8 µM): 0.15
- relative viability ([4]; first compound 0.08 µM): 0.304
- relative viability ([4]; first compound 0.253 µM): 0.231
- relative viability ([4]; first compound 2.53 µM): 0.172
- relative viability ([4]; first compound 8 µM): 0.107
- relative viability ([5]; first compound 0.08 µM): 1.02
- relative viability ([5]; first compound 0.253 µM): 0.787
- relative viability ([5]; first compound 2.53 µM): 0.609
- relative viability ([5]; first compound 8 µM): 0.349

Cell Line: NCI-H1792
- relative viability ([1]; first compound 0.08 µM): 0.97
- relative viability ([1]; first compound 0.253 µM): 0.527
- relative viability ([1]; first compound 2.53 µM): 0.578
- relative viability ([1]; first compound 8 µM): 0.567
- relative viability ([2]; first compound 0.08 µM): 0.674
- relative viability ([2]; first compound 0.253 µM): 0.483
- relative viability ([2]; first compound 2.53 µM): 0.442
- relative viability ([2]; first compound 8 µM): 0.425
- relative viability ([3]; first compound 0.08 µM): 0.527
- relative viability ([3]; first compound 0.253 µM): 0.461
- relative viability ([3]; first compound 2.53 µM): 0.421
- relative viability ([3]; first compound 8 µM): 0.177
- relative viability ([4]; first compound 0.08 µM): 0.507
- relative viability ([4]; first compound 0.253 µM): 0.492
- relative viability ([4]; first compound 2.53 µM): 0.489
- relative viability ([4]; first compound 8 µM): 0.456
- relative viability ([5]; first compound 0.08 µM): 0.34
- relative viability ([5]; first compound 0.253 µM): 0.23
- relative viability ([5]; first compound 2.53 µM): 0.278
- relative viability ([5]; first compound 8 µM): 0.39

Cell Line: NCI-H322M
- relative viability ([1]; first compound 0.08 µM): 0.728
- relative viability ([1]; first compound 0.253 µM): 0.618
- relative viability ([1]; first compound 2.53 µM): 0.739
- relative viability ([1]; first compound 8 µM): 0.763
- relative viability ([2]; first compound 0.08 µM): 0.65
- relative viability ([2]; first compound 0.253 µM): 0.511
- relative viability ([2]; first compound 2.53 µM): 0.533
- relative viability ([2]; first compound 8 µM): 0.595
- relative viability ([3]; first compound 0.08 µM): 0.769
- relative viability ([3]; first compound 0.253 µM): 0.52
- relative viability ([3]; first compound 2.53 µM): 0.455
- relative viability ([3]; first compound 8 µM): 0.481
- relative viability ([4]; first compound 0.08 µM): 0.69
- relative viability ([4]; first compound 0.253 µM): 0.788
- relative viability ([4]; first compound 2.53 µM): 0.823
- relative viability ([4]; first compound 8 µM): 0.739
- relative viability ([5]; first compound 0.253 µM): 0.593
- relative viability ([5]; first compound 2.53 µM): 0.62
- relative viability ([5]; first compound 8 µM): 0.695

Cell Line: LXF-289
- relative viability ([1]; first compound 0.08 µM): 0.886
- relative viability ([1]; first compound 0.253 µM): 0.782
- relative viability ([1]; first compound 2.53 µM): 0.932
- relative viability ([1]; first compound 8 µM): 0.787
- relative viability ([2]; first compound 0.08 µM): 1.12
- relative viability ([2]; first compound 0.253 µM): 1.11
- relative viability ([2]; first compound 2.53 µM): 1.17
- relative viability ([2]; first compound 8 µM): 1.05
- relative viability ([3]; first compound 0.08 µM): 0.638
- relative viability ([3]; first compound 2.53 µM): 0.617
- relative viability ([3]; first compound 8 µM): 0.513
- relative viability ([4]; first compound 0.08 µM): 0.379
- relative viability ([4]; first compound 0.253 µM): 0.38
- relative viability ([4]; first compound 8 µM): 0.329
- relative viability ([5]; first compound 0.08 µM): 0.834
- relative viability ([5]; first compound 0.253 µM): 0.727
- relative viability ([5]; first compound 2.53 µM): 0.828
- relative viability ([5]; first compound 8 µM): 0.779

Cell Line: HCC-827
- relative viability ([1]; first compound 0.08 µM): 0.255
- relative viability ([1]; first compound 0.253 µM): 0.288
- relative viability ([1]; first compound 2.53 µM): 0.281
- relative viability ([1]; first compound 8 µM): 0.251
- relative viability ([2]; first compound 0.08 µM): 0.211
- relative viability ([2]; first compound 0.253 µM): 0.207
- relative viability ([2]; first compound 2.53 µM): 0.215
- relative viability ([2]; first compound 8 µM): 0.161
- relative viability ([3]; first compound 0.08 µM): 0.547
- relative viability ([3]; first compound 0.253 µM): 0.582
- relative viability ([3]; first compound 2.53 µM): 0.457
- relative viability ([3]; first compound 8 µM): 0.422
- relative viability ([4]; first compound 0.08 µM): 0.316
- relative viability ([4]; first compound 0.253 µM): 0.3
- relative viability ([4]; first compound 2.53 µM): 0.323
- relative viability ([4]; first compound 8 µM): 0.331
- relative viability ([5]; first compound 0.08 µM): 1.19
- relative viability ([5]; first compound 0.253 µM): 0.897
- relative viability ([5]; first compound 2.53 µM): 0.861
- relative viability ([5]; first compound 8 µM): 0.727
